# Test results: PMC5224920, “Assessing the mechanism and therapeutic potential of modulators of the human Mediator complex-associated protein kinases” (eLife, 2016)
# Test system: 12 single or co-culture in vitro tissue models of primary cells
# Test: Culture/co-culture cell model panel, extracellular biomarkers (DiscoveRx); as to CCL2/MCP-1: reference of the scale not given here; as to CXCL8/IL-8: reference of the scale not given here; as to CXCL9/MIG: reference of the scale not given here; as to IL-1alpha: reference of the scale not given here; as to M-CSF: reference of the scale not given here; as to PBMC Cytotoxicity: reference of the scale not given here; as to SRB: reference of the scale not given here; as to sTNF-alpha: reference of the scale not given here
# Format: cell-based, human
# Conditions: for B cell Proliferation / PBMC Cytotoxicity / Secreted IgG / sIL-2 / sIL-6 / sIL-17A / sIL-17F / sTNF-alpha: BT
# [1] = HDF3CGF stimulated fibroblasts, 1.00E0 nM
# [2] = HDF3CGF stimulated fibroblasts, 1.00E1 nM
# [3] = HDF3CGF stimulated fibroblasts, 1.00E2 nM
# [4] = HDF3CGF stimulated fibroblasts, 1.00E3 nM
compound,measurement,setting,value
Cn1ncc2cc(-c3cnc(N)c(Cl)c3N3CCC4(CCNC4=O)CC3)ccc21 [CMPD 3],SRB,"BENo, 1.00E3 nM",0.000914
same,tPA,"BENo, 1.00E3 nM",-0.008
same,uPA,"BENo, 1.00E3 nM",0.00377
same,CCL26/Eotaxin-3,"BENo, 1.00E4 nM",0.042
same,CD54/ICAM-1,"BENo, 1.00E4 nM",0.016
same,CD87/uPAR,"BENo, 1.00E4 nM",0.038
same,CXCL8/IL-8,"BENo, 1.00E4 nM",0.023
same,CXCL9/MIG,"BENo, 1.00E4 nM",0.059
same,CXCL10/IP-10,"BENo, 1.00E4 nM",0.042
same,CXCL11/I-TAC,"BENo, 1.00E4 nM",0.073
same,EGFR,"BENo, 1.00E4 nM",0.00756
same,HLA-DR,"BENo, 1.00E4 nM",0.014
same,IL-1alpha,"BENo, 1.00E4 nM",-0.053
same,Keratin 8/18,"BENo, 1.00E4 nM",0.041
same,MMP-1,"BENo, 1.00E4 nM",-0.026
same,MMP-9,"BENo, 1.00E4 nM",0.010
same,PAI-I,"BENo, 1.00E4 nM",-0.144
same,SRB,"BENo, 1.00E4 nM",-0.006
same,tPA,"BENo, 1.00E4 nM",0.015
same,uPA,"BENo, 1.00E4 nM",-0.00171
same,CCL2/MCP-1,"BF4T, 1.00E0 nM",-0.034
same,CCL26/Eotaxin-3,"BF4T, 1.00E0 nM",-0.012
same,CD54/ICAM-1,"BF4T, 1.00E0 nM",0.007
same,CD90,"BF4T, 1.00E0 nM",-0.021
same,CD106/VCAM-1,"BF4T, 1.00E0 nM",0.067
same,CXCL8/IL-8,"BF4T, 1.00E0 nM",0.013
same,IL-1alpha,"BF4T, 1.00E0 nM",0.00747
same,Keratin 8/18,"BF4T, 1.00E0 nM",0.00256
same,MMP-1,"BF4T, 1.00E0 nM",0.013
same,MMP-3,"BF4T, 1.00E0 nM",0.056
same,MMP-9,"BF4T, 1.00E0 nM",0.030
same,PAI-I,"BF4T, 1.00E0 nM",0.049
same,SRB,"BF4T, 1.00E0 nM",0.00349
same,tPA,"BF4T, 1.00E0 nM",0.039
same,uPA,"BF4T, 1.00E0 nM",0.035
same,CCL2/MCP-1,"BF4T, 1.00E1 nM",-0.011
same,CCL26/Eotaxin-3,"BF4T, 1.00E1 nM",-0.071
same,CD54/ICAM-1,"BF4T, 1.00E1 nM",-0.035
same,CD90,"BF4T, 1.00E1 nM",0.005
same,CD106/VCAM-1,"BF4T, 1.00E1 nM",-0.00425
same,CXCL8/IL-8,"BF4T, 1.00E1 nM",0.046
same,IL-1alpha,"BF4T, 1.00E1 nM",0.008
same,Keratin 8/18,"BF4T, 1.00E1 nM",0.009
same,MMP-1,"BF4T, 1.00E1 nM",-0.00365
same,MMP-3,"BF4T, 1.00E1 nM",0.023
same,MMP-9,"BF4T, 1.00E1 nM",0.007
same,PAI-I,"BF4T, 1.00E1 nM",-0.00638
same,SRB,"BF4T, 1.00E1 nM",0.000434
same,tPA,"BF4T, 1.00E1 nM",0.032
same,uPA,"BF4T, 1.00E1 nM",-0.000167
same,CCL2/MCP-1,"BF4T, 1.00E2 nM",-0.034
same,CCL26/Eotaxin-3,"BF4T, 1.00E2 nM",-0.085
same,CD54/ICAM-1,"BF4T, 1.00E2 nM",-0.034
same,CD90,"BF4T, 1.00E2 nM",0.00329
same,CD106/VCAM-1,"BF4T, 1.00E2 nM",-0.010
same,CXCL8/IL-8,"BF4T, 1.00E2 nM",0.040
same,IL-1alpha,"BF4T, 1.00E2 nM",-0.00155
same,Keratin 8/18,"BF4T, 1.00E2 nM",0.017
same,MMP-1,"BF4T, 1.00E2 nM",-0.009
same,MMP-3,"BF4T, 1.00E2 nM",0.032
same,MMP-9,"BF4T, 1.00E2 nM",-0.020
same,PAI-I,"BF4T, 1.00E2 nM",-0.00143
same,SRB,"BF4T, 1.00E2 nM",0.00276
same,tPA,"BF4T, 1.00E2 nM",0.041
same,uPA,"BF4T, 1.00E2 nM",0.017
same,CCL2/MCP-1,"BF4T, 1.00E3 nM",-0.042
same,CCL26/Eotaxin-3,"BF4T, 1.00E3 nM",-0.098
same,CD54/ICAM-1,"BF4T, 1.00E3 nM",-0.035
same,CD90,"BF4T, 1.00E3 nM",0.00842
same,CD106/VCAM-1,"BF4T, 1.00E3 nM",-0.023
same,CXCL8/IL-8,"BF4T, 1.00E3 nM",0.030
same,IL-1alpha,"BF4T, 1.00E3 nM",-0.009
same,Keratin 8/18,"BF4T, 1.00E3 nM",0.034
same,MMP-1,"BF4T, 1.00E3 nM",0.000873
same,MMP-3,"BF4T, 1.00E3 nM",0.030
same,MMP-9,"BF4T, 1.00E3 nM",-0.009
same,PAI-I,"BF4T, 1.00E3 nM",0.022
same,SRB,"BF4T, 1.00E3 nM",0.00179
same,tPA,"BF4T, 1.00E3 nM",0.045
same,uPA,"BF4T, 1.00E3 nM",0.019
same,CCL2/MCP-1,"BF4T, 1.00E4 nM",-0.010
same,CCL26/Eotaxin-3,"BF4T, 1.00E4 nM",-0.092
same,CD54/ICAM-1,"BF4T, 1.00E4 nM",-0.042
same,CD90,"BF4T, 1.00E4 nM",0.017
same,CD106/VCAM-1,"BF4T, 1.00E4 nM",0.005
same,CXCL8/IL-8,"BF4T, 1.00E4 nM",0.022
same,IL-1alpha,"BF4T, 1.00E4 nM",-0.002
same,Keratin 8/18,"BF4T, 1.00E4 nM",0.038
same,MMP-1,"BF4T, 1.00E4 nM",0.00226
same,MMP-3,"BF4T, 1.00E4 nM",0.073
same,MMP-9,"BF4T, 1.00E4 nM",0.010
same,PAI-I,"BF4T, 1.00E4 nM",0.013
same,SRB,"BF4T, 1.00E4 nM",0.000467
same,tPA,"BF4T, 1.00E4 nM",0.028
same,uPA,"BF4T, 1.00E4 nM",-0.035
same,B cell Proliferation,1.00E0 nM,0.00438
same,PBMC Cytotoxicity,1.00E0 nM,0.034
same,Secreted IgG,1.00E0 nM,-0.074
same,sIL-2,1.00E0 nM,0.110
same,sIL-6,1.00E0 nM,0.008
same,sIL-17A,1.00E0 nM,0.110
same,sIL-17F,1.00E0 nM,-0.037
same,sTNF-alpha,1.00E0 nM,0.089
same,B cell Proliferation,1.00E1 nM,-0.011
same,PBMC Cytotoxicity,1.00E1 nM,-0.016
same,Secreted IgG,1.00E1 nM,0.026
same,sIL-2,1.00E1 nM,0.017
same,sIL-6,1.00E1 nM,-0.016
same,sIL-17A,1.00E1 nM,0.095
same,sIL-17F,1.00E1 nM,-0.399
same,sTNF-alpha,1.00E1 nM,-0.021
same,B cell Proliferation,1.00E2 nM,-0.056
same,PBMC Cytotoxicity,1.00E2 nM,-0.027
same,Secreted IgG,1.00E2 nM,-0.165
same,sIL-2,1.00E2 nM,0.084
same,sIL-6,1.00E2 nM,0.046
same,sIL-17A,1.00E2 nM,0.184
same,sIL-17F,1.00E2 nM,-0.384
same,sTNF-alpha,1.00E2 nM,0.022
same,B cell Proliferation,1.00E3 nM,-0.058
same,PBMC Cytotoxicity,1.00E3 nM,-0.050
same,Secreted IgG,1.00E3 nM,-0.370
same,sIL-2,1.00E3 nM,-0.083
same,sIL-6,1.00E3 nM,-0.147
same,sIL-17A,1.00E3 nM,0.263
same,sIL-17F,1.00E3 nM,-0.522
same,sTNF-alpha,1.00E3 nM,-0.114
same,B cell Proliferation,1.00E4 nM,-0.233
same,PBMC Cytotoxicity,1.00E4 nM,-0.092
same,Secreted IgG,1.00E4 nM,-0.611
same,sIL-2,1.00E4 nM,-0.213
same,sIL-6,1.00E4 nM,-0.493
same,sIL-17A,1.00E4 nM,0.164
same,sIL-17F,1.00E4 nM,-0.874
same,sTNF-alpha,1.00E4 nM,-0.249
same,CCL2/MCP-1,[1],-0.000698
same,CD54/ICAM-1,[1],0.022
same,CD106/VCAM-1,[1],-0.007
same,CXCL8/IL-8,[1],-0.00379
same,CXCL9/MIG,[1],0.00441
same,CXCL10/IP-10,[1],0.006
same,CXCL11/I-TAC,[1],0.016
same,Collagen I,[1],0.078
same,Collagen III,[1],0.045
same,EGFR,[1],0.070
same,M-CSF,[1],0.015
same,MMP-1,[1],0.046
same,PAI-I,[1],0.072
same,Proliferation_72hr,[1],-0.019
same,SRB,[1],-0.009
same,TIMP-1,[1],0.031
same,TIMP-2,[1],0.091
same,CCL2/MCP-1,[2],-0.016
same,CD54/ICAM-1,[2],-0.00318
same,CD106/VCAM-1,[2],0.013
same,CXCL8/IL-8,[2],-0.026
same,CXCL9/MIG,[2],-0.00175
same,CXCL10/IP-10,[2],0.035
same,CXCL11/I-TAC,[2],-0.00346
same,Collagen I,[2],0.095
same,Collagen III,[2],0.043
same,EGFR,[2],-0.010
same,M-CSF,[2],-0.053
same,MMP-1,[2],0.052
same,PAI-I,[2],-0.000592
same,Proliferation_72hr,[2],-0.139
same,SRB,[2],-0.015
same,TIMP-1,[2],-0.019
same,TIMP-2,[2],0.138
same,CCL2/MCP-1,[3],-0.095
same,CD54/ICAM-1,[3],-0.046
same,CD106/VCAM-1,[3],0.00848
same,CXCL8/IL-8,[3],-0.030
same,CXCL9/MIG,[3],-0.053
same,CXCL10/IP-10,[3],0.038
same,CXCL11/I-TAC,[3],-0.019
same,Collagen I,[3],0.072
same,Collagen III,[3],0.069
same,EGFR,[3],-0.024
same,M-CSF,[3],-0.078
same,MMP-1,[3],0.030
same,PAI-I,[3],-0.00555
same,Proliferation_72hr,[3],-0.249
same,SRB,[3],-0.018
same,TIMP-1,[3],-0.057
same,TIMP-2,[3],0.140
same,CCL2/MCP-1,[4],-0.140
same,CD54/ICAM-1,[4],-0.051
same,CD106/VCAM-1,[4],0.034
same,CXCL8/IL-8,[4],-0.084
same,CXCL9/MIG,[4],-0.075
same,CXCL10/IP-10,[4],0.033
same,CXCL11/I-TAC,[4],-0.016
same,Collagen I,[4],0.079
same,Collagen III,[4],0.097
